The results in this text go back to patent US8697356B2, “Single-molecule-format probe and utilization thereof” (National Institute of Advanced Industrial Science and …, priority 2008, dated 2014).

Type in all cases: cell-based, African green monkey
The test system of assay [1] is cytosolic Ca^2+. Briefly: Retention of Ca^2+ levels after wash-out, COS-7 cells carrying pCPG (Example 9). The note with it: CPG; 20 minutes stimulation; thapsigargin or cyproheptadine added to 0.5 mM histamine or ATP; 2 μM ionomycin. As to the method: Retention of cytosolic calcium Ca^2+ levels in response to an external stimulus were monitored on the basis of the luminescence intensities from COS-7 cells carrying pCPG.
The cells were washed twice with PBS after ligand stimulation, and harvested by trypsinization and centrifugation. This wash-out terminates the external stimulation of ligands for elevating cytosolic Ca^2+ levels. The cells were resuspended with a 40 mL substrate buffer carrying coelenterazine, and then transferred to a test tube to determine the luminescence with a luminometer (Minilumat LB9506).

A further assay has as its system COS-7 cells. Briefly: Saturation rate of substrate in COS-7 cells carrying pCPG-ctrl (Example 13). The note with it: HBSS buffer. How it is done: A reaction rate of coelenterazine saturation in COS-7 cells was monitored. […] The cells on the plate were washed once with HBSS buffer and were saturated with 500 μL HBSS buffer. The luminescence variances after coelenterazine addition were monitored with a bioluminescence plate reader (Mithras LB 940; Berthold).

Assay [2] concerns cytosolic Ca^2+. Briefly: Ca^2+ dynamics in COS-7 cells transfected with pCPG or pSMG (Example 8). The note with it: 1 mM histamine, CPG. From the text: The dynamics of cytosolic Ca^2+ in COS-7 cells were monitored in the cells transfected with pCPG and in the cells transfected with SMG shown in FIG. 14 as a control. The free Ca^2+ was a representative second messenger in living mammalian cells. […] The outer terminals were respectively fused with M13 peptide and calmodulin. SMG is different from CPG in that calmodulin and M13 peptide are linked between N- and C-terminal fragments. That is, the luciferases are not circularly permutated in SMG.
As in Example 2, COS-7 cells cultured in a black, glass-bottom plate (24-well) were transfected with pCPG or pSMG, and stocked in a cell incubator for 16 hours. The cells were saturated with a 300 μL Hank's balanced salt solution (HBSS) buffer containing coelenterazine.

For the next assay, the system named is cytoplasm Ca^2+. Briefly: Ligand affinity of CPG and CPG-ctrl, histamine-triggered Ca^2+ (Example 12). From the text: First, GLuc was dissected at Q105, and the original N- and C-terminals of the fragments were circularly permutated with a 10 GS linker. The outer terminals were respectively fused with M13 and CaM to form CPG. CPG-ctrl which is different from CPG only in that GLuc was not circularly permutated was parallelly formed as a control probe of CPG by the use of the same components as CPG (FIG. 20).
As in Example 2, COS-7 cells cultured in a black, glass-bottom plate (24-well) were transiently transfected with pCPG or pCPG-ctrl, and stocked in a cell incubator for 16 hours. The cells were saturated with a 300 μL HBSS buffer containing coelenterazine.

Each structure is given as a SMILES string.

In the case of `Nc1ncnc2c1ncn2[C@@H]1O[C@H](COP(=O)(O)OP(=O)(O)OP(=O)(O)O)[C@@H](O)[C@H]1O` [ATP], in the assay with cytosolic Ca^2+ [1], the “cytosolic Ca^2+ levels (luminescence) after wash-out” value is on record as “quickly decreased”.
The same measure, in the same setting: for `C[C@H](CCC(=O)O)C[C@H](C)C[C@H](C)C(=O)/C=C(\O)[C@H](C)C[C@H](C)C/C=C/[C@@H](C)[C@@H](O)[C@@H](C)[C@@H](O)C[C@@H]1CC[C@@](C)([C@H]2CC[C@@](C)([C@@H](C)O)O2)O1` [Ionomycin, ionomycin] the value was “retaining certain levels”.
Turning to `Oc1ccc(Cc2nc3c(Cc4ccccc4)nc(-c4ccc(O)cc4)cn3c2O)cc1` [coelenterazine], the “time in which the COS-7 cells were saturated” value in the assay on COS-7 cells came out at 8.5 min.
On to `NCCc1c[nH]cn1` [histamine], for which the “time to reach plateau of luminescence” value in the assay with cytosolic Ca^2+ [2] is about 10 min; in the assay on cytoplasm Ca^2+ (1 mM histamine, CPG), about 10 min. The “concentration from which CPG started sensing” value with cytoplasm Ca^2+ turned out to be 0.25 mM.
Turning to `C/C=C(/C)C(=O)O[C@H]1C(C)=C2[C@H]([C@@H]1OC(=O)CCCCCCC)[C@@](C)(OC(C)=O)C[C@H](OC(=O)CCC)[C@@]1(O)[C@H]2OC(=O)[C@@]1(C)O` [thapsigargin], in the assay with cytosolic Ca^2+ [1], the “cytosolic Ca^2+ levels (luminescence) after wash-out” value is reported as “retained”.
